# Read-outs that look alike come from different tables or passages of the source.
# Target: CFTR (Homo sapiens, UniProt P13569)
# Assay: Membrane Potential Dye, Enteroid Assay B
# Type: cell-based
# Method in brief: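 Human intestinal enteroid cells exposed to compound 18-24 h at 37 °C, then loaded with methyl oxonol membrane-potential dye plus CaCC blockers. Chloride transport triggered in chloride-free buffer with 10 μM forskolin, 100 μM IBMX, 300 nM Compound III; fluorescence read 15 min, expressed as % of triple-corrector/potentiator combination control.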
# [1] = Table 10, read-out: Ent. B EC50
# CFTR, sequence (P13569 with tags, fused parts or gaps DEL508-508): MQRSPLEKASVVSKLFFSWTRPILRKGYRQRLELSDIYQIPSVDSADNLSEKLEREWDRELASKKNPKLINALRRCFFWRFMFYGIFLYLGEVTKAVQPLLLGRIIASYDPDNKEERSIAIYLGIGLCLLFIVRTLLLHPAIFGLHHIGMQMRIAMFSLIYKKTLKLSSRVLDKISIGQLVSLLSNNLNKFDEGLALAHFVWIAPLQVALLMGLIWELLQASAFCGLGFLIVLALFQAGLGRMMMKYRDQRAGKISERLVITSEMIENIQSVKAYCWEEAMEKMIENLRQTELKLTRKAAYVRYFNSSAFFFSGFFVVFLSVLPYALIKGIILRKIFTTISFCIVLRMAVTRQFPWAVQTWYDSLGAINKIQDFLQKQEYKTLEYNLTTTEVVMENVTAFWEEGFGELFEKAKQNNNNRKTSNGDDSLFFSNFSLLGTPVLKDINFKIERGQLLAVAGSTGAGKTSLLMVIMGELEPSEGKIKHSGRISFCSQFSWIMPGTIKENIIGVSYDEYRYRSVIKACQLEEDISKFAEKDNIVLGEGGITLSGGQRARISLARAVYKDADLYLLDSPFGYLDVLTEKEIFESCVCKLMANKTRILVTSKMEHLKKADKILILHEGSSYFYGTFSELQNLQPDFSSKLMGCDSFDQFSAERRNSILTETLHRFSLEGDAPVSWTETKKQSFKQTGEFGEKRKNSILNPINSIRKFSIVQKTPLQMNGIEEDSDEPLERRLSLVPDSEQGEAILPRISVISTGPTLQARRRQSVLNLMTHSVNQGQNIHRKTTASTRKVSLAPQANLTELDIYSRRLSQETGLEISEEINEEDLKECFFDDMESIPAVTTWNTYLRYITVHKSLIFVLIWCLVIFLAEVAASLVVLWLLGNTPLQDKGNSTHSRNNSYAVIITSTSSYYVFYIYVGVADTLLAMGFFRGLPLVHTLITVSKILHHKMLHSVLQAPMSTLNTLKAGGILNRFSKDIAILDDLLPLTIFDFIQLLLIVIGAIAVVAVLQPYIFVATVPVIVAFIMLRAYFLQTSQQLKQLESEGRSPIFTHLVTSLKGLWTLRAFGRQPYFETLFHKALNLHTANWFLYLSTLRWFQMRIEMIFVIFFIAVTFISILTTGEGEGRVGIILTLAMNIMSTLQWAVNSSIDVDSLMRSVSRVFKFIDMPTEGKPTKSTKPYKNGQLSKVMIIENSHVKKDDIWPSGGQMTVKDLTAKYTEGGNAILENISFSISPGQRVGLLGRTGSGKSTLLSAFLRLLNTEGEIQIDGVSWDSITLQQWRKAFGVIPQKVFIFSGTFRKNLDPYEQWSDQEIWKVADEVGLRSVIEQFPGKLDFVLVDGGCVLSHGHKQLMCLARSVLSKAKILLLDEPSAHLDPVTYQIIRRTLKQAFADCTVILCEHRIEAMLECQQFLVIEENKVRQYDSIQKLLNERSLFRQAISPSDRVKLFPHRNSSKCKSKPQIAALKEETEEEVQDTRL
Compound,Ent. B Max Activity (%) (Table 9),"EC50 (Table 9, read-out: Ent. B EC50)",Ent. B Max Activity (%) (Table 10),EC50 [1],further results
"Cc1cccc(C)c1-c1cc2nc(n1)NS(=O)(=O)c1cccc(c1)C(=O)N([C@H]1C[C@@H](N3CC(N(C)C)C3)C1)[C@H](CC(C)C)CO2 [Compound 66, (11R)-12-[3-[3-(Dimethylamino)azetidin-1-yl]cyclobutyl]-6-(2,6-dimethylphenyl)-11-isobutyl-2,2-dioxo-9-oxa-2λ^6-thia-3,5,12,19-tetrazatricyclo[12.3.1.14,8]nonadeca-1(18),4(19),5,7,14,16-hexaen-13-one]",+++ (+++ is >60%),< 1 µM,,,
COC1CC(N2C(=O)c3cccc(c3)S(=O)(=O)Nc3nc(cc(-c4c(C)cccc4C)n3)OC[C@H]2CC2(C(F)(F)F)CC2)C1 (stereo in doubt) [Compound 466],,,,,Ent. B Max Activity (%): +++ (+++ is >60%); EC50 (read-out: Ent. B EC50): < 1 µM
Cc1cccc(C)c1-c1cc2nc(n1)NS(=O)(=O)c1cccc(c1)C(=O)N(C1CC3(CC(C(N)=O)C3)C1)[C@H](CC(C)(C)C)CO2 (some centres unmarked) [Compound 233],,,+++ (+++ is >60%),< 1 µM,
[H][C@]1(N2C(=O)c3cccc(c3)S(=O)(=O)Nc3nc(cc(-c4c(C)cccc4C)n3)OC[C@H]2CC2(C(F)(F)F)CC2)C[C@@]2(C[C@H](N(C)C)C2)C1 (some centres unmarked) [Compound 298],,,,,Ent. B Max Activity (%): +++ (+++ is >60%); EC50 (read-out: Ent. B EC50): < 1 µM
CCC(=O)NC1(C)CC(N2C(=O)c3cccc(c3)S(=O)(=O)Nc3nc(cc(-c4c(C)cccc4C)n3)OCC2CC(C)(C)C)C1 (centres unmarked) [Compound 243],,,+++ (+++ is >60%),< 1 µM,
Cc1cccc(C)c1-c1cc2nc(n1)NS(=O)(=O)c1cccc(c1)C(=O)N(C1CS(=O)(=O)C1)[C@H](CC(C)(C)C)CO2 [Compound 222],,,+++ (+++ is >60%),< 1 µM,
Cc1cccc(C)c1-c1cc2nc(n1)NS(=O)(=O)c1cccc(c1)C(=O)N([C@H]1C[C@@H](N(C)C)C1)[C@H](CC(C)C)CO2 [Compound 302],,,,,Ent. B Max Activity (%): +++ (+++ is >60%); EC50 (read-out: Ent. B EC50): < 1 µM
CCC(=O)N(C)C1CC(N2C(=O)c3cccc(c3)S(=O)(=O)Nc3nc(cc(-c4c(C)cccc4C)n3)OC[C@H]2CC(C)(C)C)C1 (stereo in doubt) [Compound 239],,,++ (++ is 30-60%),< 1 µM,
CCC(=O)NC1(C)CC(N2C(=O)c3cccc(c3)S(=O)(=O)Nc3nc(cc(-c4c(C)cccc4C)n3)OC[C@H]2CC(C)(C)C)C1 (some centres unmarked) [Compound 242],,,++ (++ is 30-60%),< 1 µM,
"Cc1cccc(C)c1-c1cc2nc(n1)NS(=O)(=O)c1cccc(c1)C(=O)N([C@H]1C[C@@H](N(C)CCCO)C1)[C@H](CC(C)C)CO2 [Compound 67, (11R)-6-(2,6-Dimethylphenyl)-12-[3-[3-hydroxypropyl(methyl)amino]cyclobutyl]-11-isobutyl-2,2-dioxo-9-oxa-2λ^6-thia-3,5,12,19-tetrazatricyclo[12.3.1.14,8]nonadeca-1(18),4(19),5,7,14,16-hexaen-13-one]",+++ (+++ is >60%),< 1 µM,,,
COC(=O)N[C@H]1CC2(C1)C[C@H](N1C(=O)c3cccc(c3)S(=O)(=O)Nc3nc(cc(-c4c(C)cccc4C)n3)OC[C@H]1CC(C)C)C2 (some centres unmarked) [Compound 305],,,,,Ent. B Max Activity (%): +++ (+++ is >60%); EC50 (read-out: Ent. B EC50): < 1 µM
"Cc1cccc(C)c1-c1cc2nc(n1)NS(=O)(=O)c1cccc(c1)C(=O)N(C1CC3(COC(=O)N3)C1)[C@H](CC(C)(C)C)CO2 (single isomer, unassigned) [Compound 176]",,,++ (++ is 30-60%),< 1 µM,
Cc1cccc(C)c1-c1cc2nc(n1)NS(=O)(=O)c1cccc(c1)C(=O)N(C1CC3(CCN(CC(F)F)CC3)C1)[C@H](CC(C)C)CO2 [Compound 322],,,,,Ent. B Max Activity (%): +++ (+++ is >60%); EC50 (read-out: Ent. B EC50): < 1 µM
CC(C)C[C@@H]1COc2cc(C3CCCCC3(C)C)nc(n2)NS(=O)(=O)c2cccc(c2)C(=O)N1C1CC2(CCN(C)CC2)C1 (some centres unmarked) [Compound 394],,,,,Ent. B Max Activity (%): +++ (+++ is >60%); EC50 (read-out: Ent. B EC50): 1 to 3 µM
CCCN1CCC2(CC1)CC(N1C(=O)c3cccc(c3)S(=O)(=O)Nc3nc(cc(-c4c(C)cccc4C)n3)OC[C@H]1CC(C)C)C2 [Compound 303],,,,,Ent. B Max Activity (%): +++ (+++ is >60%); EC50 (read-out: Ent. B EC50): < 1 µM
"Cc1cccc(C)c1-c1cc2nc(n1)NS(=O)(=O)c1cccc(c1)C(=O)N([C@H]1C[C@@H](CNC(=O)OC(C)C)C1)[C@H](CC(C)C)CO2 (single isomer, unassigned) [Compound 107]",+++ (+++ is >60%),< 1 µM,,,
"Cc1cccc(C)c1-c1cc2nc(n1)NS(=O)(=O)c1cccc(c1)C(=O)N(C1CC3(COC(=O)N3C)C1)[C@H](CC(C)(C)C)CO2 (single isomer, unassigned) [Compound 174]",,,++ (++ is 30-60%),< 1 µM,
Cc1cccc(C)c1-c1cc2nc(n1)NS(=O)(=O)c1cccc(c1)C(=O)N([C@H]1C[C@]3(C[C@H](N(C)C(=O)OC(C)C)C3)C1)[C@H](CC1(C(F)(F)F)CC1)CO2 (some centres unmarked) [Compound 271],+++ (+++ is >60%),< 1 µM,,,
"Cc1cccc(C)c1-c1cc2nc(n1)NS(=O)(=O)c1cccc(c1)C(=O)N([C@H]1C[C@@H](NC(=O)OC(C)C)C1)[C@H](CC(C)C)CO2 (single isomer, unassigned) [Compound 64]",,,,,Ent. B Max Activity (%): +++ (+++ is >60%); EC50 (read-out: Ent. B EC50): < 1 µM
"COC(=O)NC1(C)CC2(CC(N3C(=O)c4cccc(c4)S(=O)(=O)Nc4nc(cc(-c5c(C)cccc5C)n4)OC[C@H]3CC(C)(C)C)C2)C1 (single isomer, unassigned) [Compound 95]",,,+++ (+++ is >60%),< 1 µM,
"Cc1cccc(C)c1-c1cc2nc(n1)NS(=O)(=O)c1cccc(c1)C(=O)N([C@H]1C[C@@H](OC(C)C)C1)[C@H](CC(C)C)CO2 (single isomer, unassigned) [Compound 45]",+++ (+++ is >60%),< 1 µM,,,
Cc1cccc(C)c1-c1cc2nc(n1)NS(=O)(=O)c1cccc(c1)C(=O)N(c1cnn(C(C)C)c1)[C@H](CC(C)(C)C)CO2 [Compound 228],,,+++ (+++ is >60%),< 1 µM,
Cc1cccc(C)c1-c1cc2nc(n1)NS(=O)(=O)c1cccc(c1)C(=O)N(C1CC3(CC(C(N)=O)C3)C1)[C@H](CC(C)(C)C)CO2 (some centres unmarked) [Compound 232],,,+++ (+++ is >60%),< 1 µM,
"Cc1cccc(C)c1-c1cc2nc(n1)NS(=O)(=O)c1cccc(c1)C(=O)N(C1CC3(CCN(C(=O)N(C)C)CC3)C1)[C@H](CC(C)C)CO2 [Compound 26, 2-[(11R)-6-(2,6-Dimethylphenyl)-11-isobutyl-2,2,13-trioxo-9-oxa-2λ^6-thia-3,5,12,19-tetrazatricyclo[12.3.1.14,8]nonadeca-1(18),4(19),5,7,14,16-hexaen-12-yl]-N,N-dimethyl-7-azaspiro[3.5]nonane-7-carboxamide]",+++ (+++ is >60%),< 1 µM,,,

# Continued, in another order:
Ent. B Max Activity (%) (Table 9),"EC50 (Table 9, read-out: Ent. B EC50)",Ent. B Max Activity (%) (Table 10),EC50 [1],Compound,further results
+++ (+++ is >60%),< 1 µM,,,Cc1cccc(C)c1-c1cc2nc(n1)NS(=O)(=O)c1cccc(c1)C(=O)N(C1CC(NC(=O)C(C)C)C1)[C@H](CC(C)(C)C)CO2 (stereo in doubt) [Compound 445],
+++ (+++ is >60%),,,,COCCN1CCC2(CC1)CC(N1C(=O)c3cccc(n3)S(=O)(=O)Nc3cc(cc(-c4c(C)cccc4C)n3)OC[C@H]1CC(C)C)C2 [Compound 422],
+++ (+++ is >60%),< 1 µM,,,CC(=O)N1CCC2(CC1)CC(N1C(=O)c3cccc(c3)S(=O)(=O)Nc3nc(cc(-c4c(C)cccc4C)n3)OC[C@H]1CC(C)(C)C(F)(F)F)C2 [Compound 420],
+++ (+++ is >60%),< 1 µM,,,Cc1cccc(C)c1-c1cc2nc(n1)NS(=O)(=O)c1cccc(c1)C(=O)N(C1CC(N[C@H]3CC[C@H](O)CC3)C1)[C@H](CC(C)C)CO2 (stereo in doubt) [Compound 372],
++ (++ is 30-60%),1 to 3 µM,,,Cc1cccc(C)c1-c1cc2nc(n1)NS(=O)(=O)c1cccc(c1)C(=O)N(C1CCN(C)CC1)CC(CC(C)C)CO2 (centres unmarked) [Compound 440],
+++ (+++ is >60%),< 1 µM,,,COCCN1CCN([C@H]2C[C@@H](N3C(=O)c4cccc(c4)S(=O)(=O)Nc4nc(cc(-c5c(C)cccc5C)n4)OC[C@H]3CC(C)C)C2)CC1=O [Compound 385],
+++ (+++ is >60%),< 1 µM,,,CC(=O)NC1CC(N2C(=O)c3cccc(c3)S(=O)(=O)Nc3nc(cc(-c4c(C)cccc4C)n3)OC[C@H]2CC(C)(C)C)C1 (stereo in doubt) [Compound 449],
,,+++ (+++ is >60%),< 1 µM,Cc1cccc(C)c1-c1cc2nc(n1)NS(=O)(=O)c1cccc(c1)C(=O)N(C1CC3(CCN(C(=O)C(C)C)CC3)C1)[C@H](CC(C)(C)C(F)(F)F)CO2 [Compound 416],
+++ (+++ is >60%),< 1 µM,,,COCCN(C)C1CC(N2C(=O)c3cccc(c3)S(=O)(=O)Nc3nc(cc(-c4c(C)cccc4C)n3)OC[C@H]2CC(C)C)C1 (some centres unmarked) [Compound 382],

# — patent US20230382925A1, “MODULATORS OF CYSTIC FIBROSIS TRANSMEMBRANE CONDUCTANCE REGULATOR” (VERTEX PHARMACEUTICALS INCORPORATED, priority 2020, published 2023)
